According to patent US4652649A, “Anti-spasmodic agents having a ring in the main chain” (United Pharmaceuticals, Inc., priority 1985, dated 1987):
Counter-ions that a name gives are not always drawn.

Columns and labels:
muscarinic receptors = type: binding, rabbit (New Zealand White); settings: at a concentration of 1.0 × 10^-5 M; rabbit lung homogenate, 0.1 nM [3H]QNB, 37° C., 60 min
[1] = test system: gastrointestinal tract, biliary tract, ureter and uterus; settings: cited from earlier work

Structure (SMILES) | % inhibition of 3H[QNB] binding (muscarinic receptors) | decrease spasm of the gastrointestinal tract, biliary tract, ureter and uterus ([1]; in vivo) | atropinic side effects ([1]; salivary and sweat glands, GI glands, the eye or the cardiovascular system)
CCN(CC)CCSC(=O)c1ccc(C(C)(C)C)cc1 [4-t-butyl-benzoyl-thio-S-(2-diethylaminoethyl)-ester.HCl] | 21% |  | 
CCN(CC)CCSC(=O)C(c1ccccc1)c1ccccc1 [Thiphenamil hydrochloride] |  | decrease spasm of the gastrointestinal tract, biliary tract, ureter and uterus | without producing characteristic atropinic side effects
